Drawing on patent publication US11479559B2, “Urea-substituted aromatic ring-linked dioxinoquinoline compounds, preparation method and uses thereof” (BEIJING SCITECH-MQ PHARMACEUTICALS LIMITED, priority 2018, dated 2022), this text covers IC50 for 26 compounds.

In one test the target is VEGFR2 tyrosine kinase (Homo sapiens (Human), UniProt P35968). Briefly: Assay of small molecular compounds for inhibiting the activity of VEGFR-2 kinase (LANCE TR-FRET). On the technique in general: Time-resolved FRET reads energy transfer from a long-lived donor to a nearby acceptor.
Chain of VEGFR2 tyrosine kinase (P35968 20-1356): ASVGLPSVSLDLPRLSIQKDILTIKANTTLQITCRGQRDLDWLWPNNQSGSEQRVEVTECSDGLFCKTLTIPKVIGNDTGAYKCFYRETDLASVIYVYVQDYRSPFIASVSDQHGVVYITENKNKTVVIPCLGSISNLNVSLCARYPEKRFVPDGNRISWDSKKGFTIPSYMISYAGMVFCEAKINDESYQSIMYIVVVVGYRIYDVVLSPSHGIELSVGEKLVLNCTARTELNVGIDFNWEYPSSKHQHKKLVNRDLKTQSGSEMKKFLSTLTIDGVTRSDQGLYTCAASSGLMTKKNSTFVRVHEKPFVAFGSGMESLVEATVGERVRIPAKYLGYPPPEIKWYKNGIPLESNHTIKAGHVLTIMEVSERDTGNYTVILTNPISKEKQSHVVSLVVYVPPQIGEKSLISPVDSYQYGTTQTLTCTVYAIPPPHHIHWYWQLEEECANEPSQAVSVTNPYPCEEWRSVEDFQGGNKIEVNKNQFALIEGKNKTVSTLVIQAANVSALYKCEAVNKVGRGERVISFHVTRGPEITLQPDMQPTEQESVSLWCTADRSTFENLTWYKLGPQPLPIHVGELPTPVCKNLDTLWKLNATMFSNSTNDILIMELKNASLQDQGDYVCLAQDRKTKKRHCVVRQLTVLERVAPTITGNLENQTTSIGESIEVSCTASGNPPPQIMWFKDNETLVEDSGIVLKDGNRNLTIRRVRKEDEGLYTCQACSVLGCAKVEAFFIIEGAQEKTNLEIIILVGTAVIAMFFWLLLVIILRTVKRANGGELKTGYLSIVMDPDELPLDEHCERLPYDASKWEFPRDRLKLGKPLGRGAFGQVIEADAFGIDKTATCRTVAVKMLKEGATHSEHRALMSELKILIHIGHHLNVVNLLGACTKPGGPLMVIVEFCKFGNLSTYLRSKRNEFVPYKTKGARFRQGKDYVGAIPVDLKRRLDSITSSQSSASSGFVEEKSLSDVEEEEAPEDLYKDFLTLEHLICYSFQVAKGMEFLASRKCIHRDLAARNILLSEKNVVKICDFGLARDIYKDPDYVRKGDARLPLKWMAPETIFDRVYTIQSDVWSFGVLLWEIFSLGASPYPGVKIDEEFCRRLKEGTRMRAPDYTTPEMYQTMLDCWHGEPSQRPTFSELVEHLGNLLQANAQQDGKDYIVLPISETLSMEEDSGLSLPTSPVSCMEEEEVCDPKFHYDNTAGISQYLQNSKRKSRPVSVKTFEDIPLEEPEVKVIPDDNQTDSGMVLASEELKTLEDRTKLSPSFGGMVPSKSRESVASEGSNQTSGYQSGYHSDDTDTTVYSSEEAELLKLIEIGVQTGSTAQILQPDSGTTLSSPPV
The target of another test is RET tyrosine kinase (Homo sapiens (Human), UniProt P07949). Briefly: Assay of small molecular compounds for inhibiting the activity of RET kinase (LANCE TR-FRET).
Chain of RET tyrosine kinase (P07949 29-1114): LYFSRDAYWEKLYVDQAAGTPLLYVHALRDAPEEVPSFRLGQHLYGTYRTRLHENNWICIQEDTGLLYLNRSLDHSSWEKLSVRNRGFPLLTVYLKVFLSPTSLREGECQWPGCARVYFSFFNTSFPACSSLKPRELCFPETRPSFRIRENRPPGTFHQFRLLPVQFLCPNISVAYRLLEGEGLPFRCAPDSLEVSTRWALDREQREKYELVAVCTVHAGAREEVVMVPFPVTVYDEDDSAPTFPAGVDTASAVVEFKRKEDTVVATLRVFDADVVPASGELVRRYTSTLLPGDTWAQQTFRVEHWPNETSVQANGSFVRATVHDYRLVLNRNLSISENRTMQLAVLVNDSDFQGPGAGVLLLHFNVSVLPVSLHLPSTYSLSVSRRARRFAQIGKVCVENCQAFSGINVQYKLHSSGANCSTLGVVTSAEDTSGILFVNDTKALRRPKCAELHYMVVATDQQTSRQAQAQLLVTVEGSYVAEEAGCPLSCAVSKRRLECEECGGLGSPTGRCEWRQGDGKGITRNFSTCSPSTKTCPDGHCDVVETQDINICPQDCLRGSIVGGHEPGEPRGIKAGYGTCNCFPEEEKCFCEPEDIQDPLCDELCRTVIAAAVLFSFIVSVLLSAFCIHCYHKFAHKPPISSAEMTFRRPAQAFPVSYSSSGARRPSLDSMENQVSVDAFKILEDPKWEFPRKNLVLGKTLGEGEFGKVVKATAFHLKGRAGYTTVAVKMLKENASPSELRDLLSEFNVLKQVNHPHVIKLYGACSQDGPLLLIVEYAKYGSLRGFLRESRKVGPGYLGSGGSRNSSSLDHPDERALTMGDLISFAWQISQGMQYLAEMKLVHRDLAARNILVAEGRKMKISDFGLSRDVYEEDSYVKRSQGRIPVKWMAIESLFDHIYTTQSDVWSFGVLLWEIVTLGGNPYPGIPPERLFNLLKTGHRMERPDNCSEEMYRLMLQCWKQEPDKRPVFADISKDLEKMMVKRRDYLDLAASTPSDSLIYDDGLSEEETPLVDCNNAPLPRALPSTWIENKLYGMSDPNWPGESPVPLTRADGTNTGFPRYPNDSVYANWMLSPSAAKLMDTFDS

Like-named read-outs stand apart in the source and are kept apart here.

Procedure for RET tyrosine kinase: (§1) The assay is based on the LANCE TR-FRET technology of Perkin Elmer Inc., and the assay method is as follows:
(§2) 2.5 μL of the gradient-diluted compounds were taken with a transfer pipette to a 384-well plate.
Addition of enzyme: 5 μL of 2× RET kinase solution (concentration was 0.8 nM) was taken with a transfer pipette to the corresponding reaction well of the 384-well plate, mixed well and pre-reacted at room temperature for 30 minutes.
2.5 μL 4× Ultra ULight™-JAK-1 (Tyr1023) Peptide (concentration was 200 nM)/ATP (concentration was 40 μM) mixture was taken with a transfer pipette to the corresponding reaction well of the 384-well plate.
(§3) The final concentration of DMSO in the reaction system was 4%.
(§4) The mixture was mixed well and then centrifuged and reacted at room temperature in dark for 60 min.
(§5) The 384-well plate was placed into the Envision plate reader and the signal was detected using the appropriate program.
Procedure for VEGFR2 tyrosine kinase: as §1, §2
Addition of enzyme: 5 μL of 2× VEGFR2 kinase solution (concentration was 0.5 nM) was taken with a transfer pipette to the corresponding reaction well of the 384-well plate, mixed well and pre-reacted at room temperature for 30 minutes.
2.5 μL 4× Ultra ULight™-JAK-1 (Tyr1023) Peptide (concentration was 200 nM)/ATP (concentration was 40 μMM) mixture was taken with a transfer pipette to the corresponding reaction well of the 384-well plate.
Negative control: 2.5 μL/well 4× substrate/ATP mixture and 7.5 μL 1× Kinase Assay Buffer were added to the wells of the 384-well plate.
as §3, §4, §5

Usually IC50 stands for the concentration needed to halve the response being measured. Take `COCCOc1cc2nccc(Oc3ccc(NC(=O)NC4CC4)c(F)c3)c2c2c1OCCO2` [Example 91, 1-cyclopropyl-3-(2-fluoro-4-((5-(2-methoxyethoxy)-2,3-dihydro-[1,4]dioxino[2,3-f]quinolin-10-yl)oxy)phenyl)urea]: the IC50 at VEGFR2 tyrosine kinase (read-out: VEGFR-2 IC50) and on RET tyrosine kinase (read-out: RET IC50) was under 50 nM each time.
Take `CN(CCCOc1cc2nccc(Oc3ccc(NC(=O)NC4CC4)c(Cl)c3)c2c2c1OCCO2)C1CCC1` [Example 63, 1-(2-chloro-4-((5-(3-(cyclobutyl(methyl)amino)propoxy)-2,3-dihydro-[1,4]dioxino[2,3-f]quinolin-10-yl)oxy)phenyl)-3-cyclopropylurea]: the concentration for half-maximal inhibition (IC50) on VEGFR2 tyrosine kinase (read-out: VEGFR-2 IC50) and at RET tyrosine kinase (read-out: RET IC50) was under 50 nM throughout.
As to `CN(C)CCCOc1cc2nccc(Oc3ccc(NC(=O)Nc4ccc(Cl)c(C(F)(F)F)c4)cc3)c2c2c1OCCO2` [Example 17, 1-(4-chloro-3-(trifluoromethyl)phenyl)-3-(4-((5-(3-(dimethylamino)propoxy)-2,3-dihydro-[1, 4]dioxino[2,3-f]quinolin-10-yl)oxy)phenyl)urea], the IC50 at VEGFR2 tyrosine kinase (read-out: VEGFR-2 IC50) and on RET tyrosine kinase (read-out: RET IC50) was under 50 nM in each case.
Regarding `CNC(=O)Nc1ccc(Oc2ccnc3cc(OCCCN4CCOCC4)c4c(c23)OCCO4)cc1Cl` [Example 85, 1-(2-chloro-4-((5-(3-morpholinopropoxy)-2,3-dihydro-[1,4]dioxino[2,3-f]quinolin-10-yl)oxy)phenyl)-3-methylurea], the IC50 against VEGFR2 tyrosine kinase and on RET tyrosine kinase was under 50 nM each time.
For `O=C(Nc1ccc(Oc2ccnc3cc(OCCCN4CCOCC4)c4c(c23)OCCO4)cc1Cl)NC1CC1` [Example 55, 1-(2-chloro-4-((5-(3-morpholinopropoxy)-2,3-dihydro-[1,4]dioxino[2,3-f]quinolin-10-yl)oxy)phenyl)-3-cyclopropylurea], the IC50 at VEGFR2 tyrosine kinase (read-out: VEGFR-2 IC50) and at RET tyrosine kinase (read-out: RET IC50) was under 50 nM throughout.
On to `CN(C)CCCCCCOc1cc2nccc(Oc3ccc(NC(=O)Nc4ccc(Cl)c(C(F)(F)F)c4)cc3)c2c2c1OCCO2` [Example 30, 1-(4-chloro-3-(trifluoromethyl)phenyl)-3-(4-((5-((6-(dimethylamino)hexyl)oxy)-2,3-dihydro-[1,4]dioxino[2,3-f]quinolin-10-yl)oxy)phenyl)urea], for which the values for the IC50 against VEGFR2 tyrosine kinase and on RET tyrosine kinase (read-out: RET IC50) were 50 to 500 nM and under 50 nM, respectively.
In the case of `O=C(Nc1ccc(Oc2ccnc3cc(OCC4CC4)c4c(c23)OCCO4)cc1Cl)NC1CC1` [Example 46, 1-(2-chloro-4-((5-(cyclopropylmethoxy)-2,3-dihydro-[1,4]dioxino[2,3-f]quinolin-10-yl)oxy)phenyl)-3-cyclopropylurea], the concentration for half-maximal inhibition (IC50) on VEGFR2 tyrosine kinase (read-out: VEGFR-2 IC50) and at RET tyrosine kinase (read-out: RET IC50) was under 50 nM throughout.
For `COc1cc2nccc(Oc3ccc(NC(=O)Nc4ccc(Cl)c(C(F)(F)F)c4)cc3)c2c2c1OCCO2` [Example 1, 1-(4-chloro-3-(trifluoromethyl)phenyl)-3-(4-((5-methoxy-2,3-dihydro-[1,4]dioxino[2,3-f]quinolin-10-yl)oxy)phenyl)urea], the half-maximal inhibitory concentration (IC50) on VEGFR2 tyrosine kinase (read-out: VEGFR-2 IC50) and at RET tyrosine kinase (read-out: RET IC50) was under 50 nM in each case.
In the case of `O=C(Nc1ccc(Oc2ccnc3cc(OCCCO)c4c(c23)OCCO4)cc1Cl)NC1CC1` [Example 50, 1-(2-chloro-4-((5-(3-hydroxypropoxy)-2,3-dihydro-[1,4]dioxino[2,3-f]quinolin-10-yl)oxy)phenyl)-3-cyclopropylurea], the half-inhibitory concentration (IC50) at VEGFR2 tyrosine kinase (read-out: VEGFR-2 IC50) and at RET tyrosine kinase (read-out: RET IC50) was under 50 nM throughout.
`O=C(Nc1ccc(Oc2ccnc3cc(OCCCN4CCCC4)c4c(c23)OCCO4)cc1Cl)NC1CC1` [Example 53, 1-(2-chloro-4-((5-(3-(pyrrolidin-1-yl)propoxy)-2,3-dihydro-[1,4]dioxino[2,3-f]quinolin-10-yl)oxy)phenyl)-3-cyclopropylurea]: the half-maximal inhibitory concentration (IC50) at VEGFR2 tyrosine kinase (read-out: VEGFR-2 IC50) and at RET tyrosine kinase (read-out: RET IC50) was under 50 nM each time.
For `CC(=O)N1CCN(CCCOc2cc3nccc(Oc4ccc(NC(=O)NC5CC5)c(Cl)c4)c3c3c2OCCO3)CC1` [Example 57, 1-(4-((5-(3-(4-acetylpiperazin-1-yl)propoxy)-2,3-dihydro-[1,4]dioxino[2,3-f]quinolin-10-yl)oxy)-2-chlorophenyl)-3-cyclopropylurea], the IC50 at VEGFR2 tyrosine kinase (read-out: VEGFR-2 IC50) and at RET tyrosine kinase (read-out: RET IC50) was under 50 nM throughout.
`CC1(O)CCN(CCCOc2cc3nccc(Oc4ccc(NC(=O)NC5CC5)c(Cl)c4)c3c3c2OCCO3)CC1` [Example 60, 1-(2-chloro-4-((5-(3-(4-hydroxy-4-methylpiperidin-1-yl)propoxy)-2,3-dihydro-[1,4]dioxino[2,3-f]quinolin-10-yl)oxy)phenyl)-3-cyclopropylurea]: the IC50 at VEGFR2 tyrosine kinase (read-out: VEGFR-2 IC50) and on RET tyrosine kinase (read-out: RET IC50) was under 50 nM each time.
Regarding `CC1(C)CCN(CCCOc2cc3nccc(Oc4ccc(NC(=O)NC5CC5)c(Cl)c4)c3c3c2OCCO3)CC1` [Example 59, 1-(2-chloro-4-((5-(3-(4,4-dimethylpiperidin-1-yl)propoxy)-2,3-dihydro-[1,4]dioxino[2,3-f]quinolin-10-yl)oxy)phenyl)-3-cyclopropylurea], the IC50 at VEGFR2 tyrosine kinase (read-out: VEGFR-2 IC50) and on RET tyrosine kinase (read-out: RET IC50) was under 50 nM in each case.
In the case of `CN1CCN(CCCOc2cc3nccc(Oc4ccc(NC(=O)NC5CC5)c(Cl)c4)c3c3c2OCCO3)CC1` [Example 56, 1-(2-chloro-4-((5-(3-(4-methylpiperazin-1-yl)propoxy)-2,3-dihydro-[1,4]dioxino[2,3-f]quinolin-10-yl)oxy)phenyl)-3-cyclopropylurea], the IC50 at VEGFR2 tyrosine kinase (read-out: VEGFR-2 IC50) and on RET tyrosine kinase (read-out: RET IC50) was under 50 nM each time.
For `O=C(Nc1ccc(Oc2ccnc3cc(OC4CCOC4)c4c(c23)OCCO4)cc1Cl)NC1CC1` (stereo not drawn) [Example 66, 1-(2-chloro-4-((5-((tetrahydrofuran-3-yl)oxy)-2,3-dihydro-[1,4]dioxino[2,3-f]quinolin-10-yl)oxy)phenyl)-3-cyclopropylurea], the IC50 on VEGFR2 tyrosine kinase (read-out: VEGFR-2 IC50) and on RET tyrosine kinase (read-out: RET IC50) was under 50 nM in each case.
As to `CCOc1cc2nccc(Oc3ccc(NC(=O)NC4CC4)c(Cl)c3)c2c2c1OCCO2` [Example 43, 1-(2-chloro-4-((5-ethoxy-2,3-dihydro-[1,4]dioxino[2,3-f]quinolin-10-yl)oxy)phenyl)-3-cyclopropylurea], the IC50 on VEGFR2 tyrosine kinase (read-out: VEGFR-2 IC50) and on RET tyrosine kinase (read-out: RET IC50) was under 50 nM each time.
`O=C(Nc1ccc(Oc2ccnc3cc(OCCCN4CCS(=O)(=O)CC4)c4c(c23)OCCO4)cc1Cl)NC1CC1` [Example 58, 1-(2-chloro-4-((5-(3-(1,1-dioxothiomorpholino)propoxy)-2,3-dihydro-[1,4]dioxino[2,3-f]quinolin-10-yl)oxy)phenyl)-3-cyclopropylurea]: the IC50 at VEGFR2 tyrosine kinase (read-out: VEGFR-2 IC50) and at RET tyrosine kinase (read-out: RET IC50) was under 50 nM each time.
Turning to `O=C(Nc1ccc(Oc2ccnc3cc(OCCCN4CCOCC4)c4c(c23)OCCO4)cc1Cl)NC1CCC1` [Example 74, 1-(2-chloro-4-((5-(3-morpholinopropoxy)-2,3-dihydro-[1,4]dioxino[2,3-f]quinolin-10-yl)oxy)phenyl)-3-cyclobutylurea], the IC50 at VEGFR2 tyrosine kinase (read-out: VEGFR-2 IC50) and at RET tyrosine kinase (read-out: RET IC50) was under 50 nM each time.
For the compound `COc1cc2nccc(Oc3ccc(NC(=O)Nc4cc(C(F)(F)F)ccc4C)cc3)c2c2c1OCCO2` [Example 95, 1-(4-((5-methoxy-2,3-dihydro-[1,4]dioxino[2,3-f]quinolin-10-yl)oxy)phenyl)-3-(2-methyl-5-(trifluoromethyl)phenyl)urea], the 50% inhibitory concentration (IC50) on VEGFR2 tyrosine kinase (read-out: VEGFR-2 IC50) and on RET tyrosine kinase (read-out: RET IC50) was under 50 nM throughout.
In the case of `COc1cc2nccc(Oc3ccc(NC(=O)NC4CC4)c(F)c3)c2c2c1OCCO2` [Example 84, 1-cyclopropyl-3-(2-fluoro-4-((5-methoxy-2,3-dihydro-[1,4]dioxino[2,3-f]quinolin-10-yl)oxy)phenyl)urea], the IC50 against VEGFR2 tyrosine kinase and against RET tyrosine kinase was under 50 nM each time.
`CN1CCN(CCCOc2cc3nccc(Oc4ccc(NC(=O)Nc5ccc(Cl)c(C(F)(F)F)c5)cc4)c3c3c2OCCO3)CC1` [Example 21, 1-(4-chloro-3-(trifluoromethyl)phenyl)-3-(4-((5-(3-(4-methylpiperazin-1-yl)propoxy)-2,3-dihydro-[1,4]dioxino[2,3-f]quinolin-10-yl)oxy)phenyl)urea]: the 50% inhibitory concentration (IC50) at VEGFR2 tyrosine kinase (read-out: VEGFR-2 IC50) and at RET tyrosine kinase (read-out: RET IC50) was under 50 nM each time.
On to `O=C(Nc1ccc(Oc2ccnc3cc(OCCO)c4c(c23)OCCO4)cc1)Nc1ccc(Cl)c(C(F)(F)F)c1` [Example 14, 1-(4-chloro-3-(trifluoromethyl)phenyl)-3-(4-((5-(2-hydroxyethoxy)-2,3-dihydro-[1,4]dioxino[2,3-f]quinolin-10-yl)oxy)phenyl)urea], for which the concentration for half-maximal inhibition (IC50) on VEGFR2 tyrosine kinase (read-out: VEGFR-2 IC50) and at RET tyrosine kinase (read-out: RET IC50) was under 50 nM each time.
With `COCCCOc1cc2nccc(Oc3ccc(NC(=O)NC4CCCC4)c(Cl)c3)c2c2c1OCCO2` [Example 73, 1-(2-chloro-4-((5-(3-methoxypropoxy)-2,3-dihydro-[1,4]dioxino[2,3-f]quinolin-10-yl)oxy)phenyl)-3-cyclopentylurea], the IC50 at RET tyrosine kinase was in the range of 50 to 500 nM.
As for `O=C(Nc1ccc(Oc2ccnc3cc(OCCCN4CCCCC4)c4c(c23)OCCO4)cc1)Nc1ccc(Cl)c(C(F)(F)F)c1` [Example 19, 1-(4-chloro-3-(trifluoromethyl)phenyl)-3-(4-((5-(3-(piperidin-1-yl)propoxy)-2,3-dihydro-[1,4]dioxino[2,3-f]quinolin-10-yl)oxy)phenyl)urea], the IC50 on VEGFR2 tyrosine kinase (read-out: VEGFR-2 IC50) is under 50 nM.
Turning to `COCCOc1cc2nccc(Oc3ccc(NC(=O)Nc4ccc(Cl)c(C(F)(F)F)c4)cc3)c2c2c1OCCO2` [Example 8, 1-(4-chloro-3-(trifluoromethyl)phenyl)-3-(4-((5-(2-methoxyethoxy)-2,3-dihydro-[1,4]dioxino[2,3-f]quinolin-10-yl)oxy)phenyl)urea], at RET tyrosine kinase (read-out: RET IC50), the half-inhibitory concentration (IC50) is under 50 nM.
`CC(=O)N1CCN(CCCOc2cc3nccc(Oc4ccc(NC(=O)Nc5ccc(Cl)c(C(F)(F)F)c5)cc4)c3c3c2OCCO3)CC1` [Example 22, 1-(4-((5-(3-(4-acetylpiperazin-1-yl)propoxy)-2,3-dihydro-[1,4]dioxino[2,3-f]quinolin-10-yl)oxy)phenyl)-3-(4-chloro-3-(trifluoromethyl)phenyl)urea]: the IC50 on RET tyrosine kinase (read-out: RET IC50) was under 50 nM.
